Test results reported in PubChem BioAssay (NCI).
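All cell lines were grown in 96-well plates and treated with compound for 48 hours. Here, GI50 denotes the concentration required for 50% inhibition of growth. TGI is the concentration that stops growth completely.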

Key:
Experiment in all cases: growth of human tumour cells (NCI), 48 h
PC-3 prostate = test system: PC-3 prostate
CAKI-1 renal = test system: CAKI-1 renal
SN12C renal = test system: SN12C renal
UO-31 renal = test system: UO-31 renal
SNB-75 CNS = test system: SNB-75 CNS
786-0 renal = test system: 786-0 renal
NCI-H226 lung = test system: NCI-H226 lung
T-47D breast = test system: T-47D breast
HCT-15 colon = test system: HCT-15 colon
SK-MEL-5 melanoma = test system: SK-MEL-5 melanoma
HCT-116 colon = test system: HCT-116 colon
OVCAR-5 ovarian = test system: OVCAR-5 ovarian
M14 melanoma = test system: M14 melanoma
SK-OV-3 ovarian = test system: SK-OV-3 ovarian
OVCAR-8 ovarian = test system: OVCAR-8 ovarian
SK-MEL-2 melanoma = test system: SK-MEL-2 melanoma
HT29 colon = test system: HT29 colon
MCF7 breast = test system: MCF7 breast
ACHN renal = test system: ACHN renal
EKVX NSCLC = test system: EKVX NSCLC
HL-60(TB) leukemia = test system: HL-60(TB) leukemia
NCI-H23 lung = test system: NCI-H23 lung
SK-MEL-28 melanoma = test system: SK-MEL-28 melanoma
LOX IMVI melanoma = test system: LOX IMVI melanoma
OVCAR-3 ovarian = test system: OVCAR-3 ovarian
DU-145 prostate = test system: DU-145 prostate
UACC-257 melanoma = test system: UACC-257 melanoma
SR leukemia = test system: SR leukemia
MOLT-4 leukemia = test system: MOLT-4 leukemia
SF-539 CNS = test system: SF-539 CNS
U251 CNS = test system: U251 CNS
SF-295 CNS = test system: SF-295 CNS
CCRF-CEM leukemia = test system: CCRF-CEM leukemia
IGROV1 ovarian = test system: IGROV1 ovarian
COLO 205 colon = test system: COLO 205 colon
NCI/ADR-RES ovarian = test system: NCI/ADR-RES ovarian
A549 NSCLC = test system: A549 NSCLC
NCI-H460 lung = test system: NCI-H460 lung
MDA-MB-231 breast = test system: MDA-MB-231 breast
SF-268 CNS = test system: SF-268 CNS
OVCAR-4 ovarian = test system: OVCAR-4 ovarian
K-562 leukemia = test system: K-562 leukemia
MALME-3M melanoma = test system: MALME-3M melanoma
SW-620 colon = test system: SW-620 colon
KM12 colon = test system: KM12 colon
RPMI-8226 leukemia = test system: RPMI-8226 leukemia
BT-549 breast = test system: BT-549 breast
UACC-62 melanoma = test system: UACC-62 melanoma
NCI-H522 lung = test system: NCI-H522 lung
HCC-2998 colon = test system: HCC-2998 colon
A498 renal = test system: A498 renal
TK-10 renal = test system: TK-10 renal
HS 578T breast = test system: HS 578T breast
HOP-62 NSCLC = test system: HOP-62 NSCLC
SNB-19 CNS = test system: SNB-19 CNS
HOP-92 NSCLC = test system: HOP-92 NSCLC
MDA-MB-435 = test system: MDA-MB-435
RXF 393 renal = test system: RXF 393 renal

**Q.** Which results are given for CN1CCN(c2ccc3nc(-c4cc(C(C)(C)C)c(O)c(C(C)(C)C)c4)[nH]c3c2)CC1?
**A.** GI50 (PC-3 prostate): 1.92 µM; TGI (PC-3 prostate): 4.17 µM; GI50 (CAKI-1 renal): 1.75 µM; TGI (CAKI-1 renal): 3.49 µM; GI50 (SN12C renal): 4.64 µM; TGI (SN12C renal): 16.5 µM; GI50 (UO-31 renal): 1.7 µM; TGI (UO-31 renal): 3.08 µM; GI50 (SNB-75 CNS): 1.42 µM; TGI (SNB-75 CNS): 3.65 µM; GI50 (786-0 renal): 1.82 µM; TGI (786-0 renal): 3.5 µM; GI50 (NCI-H226 lung): 14.7 µM; TGI (NCI-H226 lung): 32.4 µM; GI50 (T-47D breast): 2.86 µM; TGI (T-47D breast): 7.61 µM; GI50 (HCT-15 colon): 1.71 µM; TGI (HCT-15 colon): 3.49 µM; GI50 (SK-MEL-5 melanoma): 1.76 µM; TGI (SK-MEL-5 melanoma): 3.17 µM; GI50 (HCT-116 colon): 1.85 µM; TGI (HCT-116 colon): 4.06 µM; GI50 (OVCAR-5 ovarian): 3.53 µM; TGI (OVCAR-5 ovarian): 12 µM; GI50 (M14 melanoma): 1.68 µM; TGI (M14 melanoma): 3.37 µM; GI50 (SK-OV-3 ovarian): 8.83 µM; TGI (SK-OV-3 ovarian): 21.8 µM; GI50 (OVCAR-8 ovarian): 5 µM; TGI (OVCAR-8 ovarian): 19.1 µM; GI50 (SK-MEL-2 melanoma): 2.38 µM; TGI (SK-MEL-2 melanoma): 5.49 µM; GI50 (HT29 colon): 2.1 µM; TGI (HT29 colon): 4.41 µM; GI50 (MCF7 breast): 1.8 µM; TGI (MCF7 breast): 4.14 µM; GI50 (ACHN renal): 3.06 µM; TGI (ACHN renal): 8.62 µM; GI50 (EKVX NSCLC): 4.3 µM; TGI (EKVX NSCLC): 16.5 µM; GI50 (HL-60(TB) leukemia): 2.22 µM; TGI (HL-60(TB) leukemia): 4.52 µM; GI50 (NCI-H23 lung): 3.31 µM; TGI (NCI-H23 lung): 10.3 µM; GI50 (SK-MEL-28 melanoma): 1.91 µM; TGI (SK-MEL-28 melanoma): 3.4 µM; GI50 (LOX IMVI melanoma): 1.83 µM; TGI (LOX IMVI melanoma): 3.41 µM; GI50 (OVCAR-3 ovarian): 4.06 µM; TGI (OVCAR-3 ovarian): 14 µM; GI50 (DU-145 prostate): 4.66 µM; TGI (DU-145 prostate): 16 µM; GI50 (UACC-257 melanoma): 2 µM; TGI (UACC-257 melanoma): 3.97 µM; GI50 (SR leukemia): 2.45 µM; TGI (SR leukemia): 8.58 µM; GI50 (MOLT-4 leukemia): 2.2 µM; TGI (MOLT-4 leukemia): 5.55 µM; GI50 (SF-539 CNS): 1.79 µM; TGI (SF-539 CNS): 3.35 µM; GI50 (U251 CNS): 2.92 µM; TGI (U251 CNS): 8.59 µM; GI50 (SF-295 CNS): 1.83 µM; TGI (SF-295 CNS): 3.66 µM; GI50 (CCRF-CEM leukemia): 2.22 µM; TGI (CCRF-CEM leukemia): 5.83 µM; GI50 (IGROV1 ovarian): 3.65 µM; TGI (IGROV1 ovarian): 12.6 µM; GI50 (COLO 205 colon): 2.02 µM; TGI (COLO 205 colon): 4.26 µM; GI50 (NCI/ADR-RES ovarian): 5.48 µM; TGI (NCI/ADR-RES ovarian): 20 µM; GI50 (A549 NSCLC): 3.26 µM; TGI (A549 NSCLC): 11.5 µM; GI50 (NCI-H460 lung): 1.99 µM; TGI (NCI-H460 lung): 3.7 µM; GI50 (MDA-MB-231 breast): 2.09 µM; TGI (MDA-MB-231 breast): 4.31 µM; GI50 (SF-268 CNS): 2.62 µM; TGI (SF-268 CNS): 7.14 µM; GI50 (OVCAR-4 ovarian): 5.43 µM; TGI (OVCAR-4 ovarian): 19 µM; GI50 (K-562 leukemia): 1.94 µM; TGI (K-562 leukemia): 4.97 µM; GI50 (MALME-3M melanoma): 1.55 µM; TGI (MALME-3M melanoma): 2.95 µM; GI50 (SW-620 colon): 2.33 µM; TGI (SW-620 colon): 4.06 µM; GI50 (KM12 colon): 1.8 µM; TGI (KM12 colon): 4.32 µM; GI50 (RPMI-8226 leukemia): 2.08 µM; TGI (RPMI-8226 leukemia): 4.85 µM; GI50 (BT-549 breast): 2.23 µM; TGI (BT-549 breast): 6.43 µM; GI50 (UACC-62 melanoma): 1.87 µM; TGI (UACC-62 melanoma): 3.38 µM; GI50 (NCI-H522 lung): 2.11 µM; TGI (NCI-H522 lung): 4.33 µM; GI50 (HCC-2998 colon): 1.85 µM; TGI (HCC-2998 colon): 3.43 µM; GI50 (A498 renal): 7.23 µM; TGI (A498 renal): 21.2 µM; GI50 (TK-10 renal): 4.79 µM; TGI (TK-10 renal): 17.2 µM; GI50 (HS 578T breast): 2.33 µM; TGI (HS 578T breast): 5.51 µM; GI50 (HOP-62 NSCLC): 2.29 µM; TGI (HOP-62 NSCLC): 5 µM; GI50 (SNB-19 CNS): 3.29 µM; TGI (SNB-19 CNS): 12.4 µM; GI50 (HOP-92 NSCLC): 1.82 µM; TGI (HOP-92 NSCLC): 6.4 µM; GI50 (MDA-MB-435): 1.73 µM; TGI (MDA-MB-435): 3.16 µM; GI50 (RXF 393 renal): 1.72 µM; TGI (RXF 393 renal): 3.52 µM
